# Values quoted from earlier work in patent publication US11337989B2, “Compositions and methods for inhibiting inflammation and diseases using an alginic acid-based antimicrobial compound” (Evofem, Inc., priority 2013, dated 2022).
# Legend:
# [1] = at an acidic pH
# [2] = system: bacteria associated with bacterial vaginosis; settings: in vaginal fluid; O'Hanlon et al. 2011
# [3] = system: HIV; settings: compared with D or racemic lactic acid; Purcell et al. 2012
# [4] = system: vaginal and cervical cells
compound,measurement,setting,value
"C[C@H](Cn1cnc2c(N)ncnc21)OCP(=O)(O)O [Tenofovir, 1-(6-aminopurin-9-yl)propan-2-yloxymethylphosphonic acid]",water solubility,[1],not water soluble
CC(O)C(=O)O (stereo not shown) [lactic acid],suppression of bacteria associated with bacterial vaginosis,[2],suppressed
"C[C@H](O)C(=O)O [L form of lactic acid, L-(+)-lactic acid]",potency in inactivating HIV,[3],more potent
nonoxynol-9 [N-9],toxicity to vaginal and cervical cells,[4],toxic
